Where two headings read alike, the source gives them in different places. Marks after values point to notes of the source that are not given here.
Target: T1, CCR2 (Homo sapiens, UniProt P41597)
T1 construct: expressed in transfected cells; host or cells: CHOK1
Assay: Antibody Dependent Cellular Cytotoxicity (ADCC) reporter assay, CCR2 target cells
Assay type: cell-based
Details: for ADCC efficacy: maximum signal:background (S/B)
From the text: The compounds described herein have been characterized in an ADCC reporter assay (see Section 1.2 ADCC reporter for protocol). […] Furthermore, the assay also confirms that this formed complex can engage and activate the Fc receptors on immune cells. Lastly, the assay provides both potency (EC50) and efficacy (signal to background ratio) for each compound in a dose dependant manner.
This assay has four components • 1) Heterobivalent Compound consisting of a targeting ligand and a hapten connected by a linker (ranging from 10 uM-1 pM) • 2) A hapten antibody with functional Fc domain (typical concentrations are 0.01 ug/mL-200 ug/mL) • 3) Target cells—CHOK1 cells engineered to overexpress either CCR1, CCR2, or CCR3, or CEMNKR cells engineered to overexpress CCR5 (typically 1000-20,000 cells per well) • 4) Reporter cells—Jurkat cells engineered to express FcgRIIIa (ADCC reporter assay) and with a reporter gene (luciferase) under the control of the NFAT promoter (typically 3000-75,000 cells per well)
Reagents are combined in final volume of 20 uL in 384-well tissue culture treated plated.
All components are incubated together for ˜12-18 hours. Add BioGlo Detection reagent (from Promega) to lyse the cells and provide substrate for the luciferase reporter protein. Signal is measured on a microplate reader capable of measuring luminescence. Signal:Background is calculated by dividing the signal of a test well by the signal obtained when no compound is included in the assay. EC50 calculations were done using Graphpad Prism Software, specifically a nonlinear regression curve fit (Y=Bottom+(Top−Bottom)/(1+10^((Log EC50−X)*HillSlope)))

[1] = CHOK1 cells overexpressing CCR2, Jurkat FcgRIIIa NFAT-luciferase reporter cells, EC50 class
[2] = CHOK1 cells overexpressing CCR2
[3] = CHOK1 cells overexpressing CCR2, Jurkat FcgRIIIa NFAT-luciferase reporter cells, EC50 class, read-out: ADCC potency

T1 sequence (P41597 whole entry, species assumed): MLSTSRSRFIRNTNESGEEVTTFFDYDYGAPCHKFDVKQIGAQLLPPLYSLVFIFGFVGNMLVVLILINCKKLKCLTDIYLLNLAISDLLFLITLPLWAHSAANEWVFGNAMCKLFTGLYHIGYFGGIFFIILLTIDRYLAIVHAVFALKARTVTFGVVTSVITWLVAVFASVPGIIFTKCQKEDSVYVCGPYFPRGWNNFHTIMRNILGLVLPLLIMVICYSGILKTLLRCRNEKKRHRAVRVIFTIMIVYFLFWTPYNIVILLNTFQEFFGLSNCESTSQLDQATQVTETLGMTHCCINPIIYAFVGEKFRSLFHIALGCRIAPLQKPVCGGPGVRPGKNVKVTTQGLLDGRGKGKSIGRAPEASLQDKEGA

Q: Which results are given for `O=C(NCC(=O)N1CC[C@H](NC2CCC(O)(c3ccc(-c4ncccn4)cn3)CC2)C1)c1cc(OCCOCCOCCOCCOCCOCCOCCOCCOCCOCCNc2ccc([N+](=O)[O-])cc2[N+](=O)[O-])cc(C(F)(F)F)c1` (single isomer, unassigned) [Compound 16]?
A: ADCC potency [1]: +++ (pEC50 ≥ 9 = +++); ADCC efficacy [2]: ++^e (>5 = ++)

Q: With `O=C(NCC(=O)N1CC[C@H](NC2CCC(O)(c3ccc(-c4ncccn4)cn3)CC2)C1)c1cc(OCCOCCOCCOCCOCCOCCOCCOCCOCCOCCNc2ccc([N+](=O)[O-])cc2[N+](=O)[O-])cc(C(F)(F)F)c1` (single isomer, unassigned) [Compound 17] as the compound, how does the ADCC potency [1] read?
A: +++ (pEC50 ≥ 9 = +++)

Q: And the ADCC efficacy [2]?
A: +++^e (Maximum Signal:Background > 10 = +++)

Q: Which EC50 [3] does the source give for `CC(C)(C)N1CCNC(C(=O)N2CCN(C(=O)Nc3ccc(Cl)c(F)c3)C(CCOC(=O)NCCOCCOCCOCCOCCOCCOCCOCCOCCOCCNc3ccc([N+](=O)[O-])cc3[N+](=O)[O-])C2)C1` (single isomer, unassigned) [Compound 19, 2-(4-(4-(Tert-butyl)piperazine-2-carbonyl)-1-((4-chloro-3-fluorophenyl)carbamoyl)piperazin-2-yl)ethyl (29-((2,4-dinitrophenyl)amino)-3,6,9,12,15,18,21,24,27-nonaoxanonacosyl)carbamate] here?
A: < 1 nM

Q: And the ADCC efficacy [2]?
A: +++^e (Maximum Signal:Background > 10 = +++)

Q: How did the EC50 [3] turn out when `CC(C)[C@]1(C(=O)N2CCc3nc(CCCCOc4ccc(C(=O)NCCOCCOCCOCCOCCOCCOCCOCCOCCOCCNc5ccc([N+](=O)[O-])cc5[N+](=O)[O-])cc4)c(C(F)(F)F)cc3C2)CC[C@@H](NC2CCOCC2)C1` [Compound 6, N-(29-((2,4-dinitrophenyl)amino)-3,6,9,12,15,18,21,24,27-nonaoxanonacosyl)-4-(4-(6-((1S,3R)-1-isopropyl-3-((tetrahydro-2H-pyran-4-yl)amino)cyclopentanecarbonyl)-3-(trifluoromethyl)-5,6,7,8-tetrahydro-1,6-naphthyridin-2-yl)butoxy)benzamide] was run?
A: < 1 nM

Q: What about the ADCC efficacy [2] of the same compound?
A: +++^e (Maximum Signal:Background > 10 = +++)

Q: What does the source list for `CC(C)[C@]1(C(=O)N2CCc3nc(CCCCOc4cccc(C(=O)NCCOCCOCCOCCOCCOCCOCCOCCOCCOCCNc5ccc([N+](=O)[O-])cc5[N+](=O)[O-])c4)c(C(F)(F)F)cc3C2)CC[C@@H](NC2CCOCC2)C1` [Compound 7, N-(29-((2,4-dinitrophenyl)amino)-3,6,9,12,15,18,21,24,27-nonaoxanonacosyl)-3-(4-(6-((1S,3R)-1-isopropyl-3-((tetrahydro-2H-pyran-4-yl)amino)cyclopentanecarbonyl)-3-(trifluoromethyl)-5,6,7,8-tetrahydro-1,6-naphthyridin-2-yl)butoxy)benzamide]?
A: EC50 [3]: < 1 nM; ADCC efficacy [2]: +++^e (Maximum Signal:Background > 10 = +++)

Q: How did the EC50 [3] turn out when `Cc1ccc2c(c1)NC[C@]21CCN(C[C@@H](O)C2CCN(C(=O)c3cc4cc(OCCOCCOCCOCCNC(=O)CCC(=O)NCCOCCOCCOCCNc5ccc([N+](=O)[O-])cc5[N+](=O)[O-])ccc4[nH]3)CC2)C[C@H]1C` [Compound 8, N1-(2-(2-(2-(2-((2-(4-((S)-2-((3S,3′S)-3′,6-Dimethylspiro[indoline-3,4′-piperidin]-1′-yl)-1-hydroxyethyl)piperidine-1-carbonyl)-1H-indol-5-yl)oxy)ethoxy)ethoxy)ethoxy)ethyl)-N4-(2-(2-(2-(2-((2,4-dinitrophenyl)amino)ethoxy)ethoxy)ethoxy)ethyl)succinamide] was run?
A: 10 to 100 nM

Q: What about the ADCC efficacy [2] of the same compound?
A: +++^e (Maximum Signal:Background > 10 = +++)

Q: What does the source list for `Cc1ccc2c(c1)NC[C@]21CCN(C[C@@H](O)C2CCN(C(=O)/C=C/c3cc(F)cc(OCCOCCOCCOCCOCCOCCOCCOCCOCCOCCNc4ccc([N+](=O)[O-])cc4[N+](=O)[O-])c3)CC2)C[C@H]1C` [Compound 9, (E)-1-(4-((S)-2-((3S,3′S)-3′,6-Dimethylspiro[indoline-3,4′-piperidin]-1′-yl)-1-hydroxyethyl)piperidin-1-yl)-3-(3-((29-((2,4-dinitrophenyl)amino)-3,6,9,12,15,18,21,24,27-nonaoxanonacosyl)oxy)-5-fluorophenyl)prop-2-en-1-one]?
A: EC50 [3]: < 1 nM; ADCC efficacy [2]: +++^e (Maximum Signal:Background > 10 = +++)

Q: Which EC50 [3] does the source give for `Cc1ccc2c(c1)NC[C@]21CCN(C[C@@H](O)C2CCN(C(=O)c3cc4cc(Oc5ccc(C(=O)NCCOCCOCCOCCOCCOCCOCCOCCOCCOCCNc6ccc([N+](=O)[O-])cc6[N+](=O)[O-])cc5)ccc4[nH]3)CC2)C[C@H]1C` [Compound 10, 4-((2-(4-((S)-2-((3S,3′S)-3′,6-Dimethylspiro[indoline-3,4′-piperidin]-1′-yl)-1-hydroxyethyl)piperidine-1-carbonyl)-1H-indol-5-yl)oxy)-N-(29-((2,4-dinitrophenyl)amino)-3,6,9,12,15,18,21,24,27-nonaoxanonacosyl)benzamide] here?
A: 1 to 10 nM

Q: What about the ADCC efficacy [2] of the same compound?
A: +++^e (Maximum Signal:Background > 10 = +++)

Q: Which EC50 [3] does the source give for `Cc1ccc2c(c1)NC[C@]21CCN(C[C@@H](O)C2CCN(c3ncc(-c4cccc(C(=O)NCCOCCOCCOCCOCCOCCOCCOCCOCCOCCNc5ccc([N+](=O)[O-])cc5[N+](=O)[O-])c4)o3)CC2)C[C@H]1C` [Compound 11, 3-(2-(4-((S)-2-((3S,3′S)-3′,6-Dimethylspiro[indoline-3,4′-piperidin]-1′-yl)-1-hydroxyethyl)piperidin-1-yl)oxazol-5-yl)-N-(29-((2,4-dinitrophenyl)amino)-3,6,9,12,15,18,21,24,27-nonaoxanonacosyl)benzamide] here?
A: 10 to 100 nM

Q: What about the ADCC efficacy [2] of the same compound?
A: +++^e (Maximum Signal:Background > 10 = +++)

Q: For `Cc1ccc2c(c1)NC[C@]21CCN(C[C@@H](O)C2CCN(C(=O)c3cc4ccc(Oc5ccc(C(=O)NCCOCCOCCOCCOCCOCCOCCOCCOCCOCCNc6ccc([N+](=O)[O-])cc6[N+](=O)[O-])cc5)cc4[nH]3)CC2)C[C@H]1C` [Compound 12, 4-((2-(4-((S)-2-((3S,3′S)-3′,6-Dimethylspiro[indoline-3,4′-piperidin]-1′-yl)-1-hydroxyethyl)piperidine-1-carbonyl)-1H-indol-6-yl)oxy)-N-(29-((2,4-dinitrophenyl)amino)-3,6,9,12,15,18,21,24,27-nonaoxanonacosyl)benzamide], which EC50 [3] is on record?
A: < 1 nM

Q: What about the ADCC efficacy [2] of the same compound?
A: +++^e (Maximum Signal:Background > 10 = +++)

Q: Which results are given for `Cc1ccc2c(c1)NC[C@]21CCN(C[C@@H](O)C2CCN(C(=O)c3cc4ccc(OCCOCCOCCOCCNC(=O)CCC(=O)NCCOCCOCCOCCNc5ccc([N+](=O)[O-])cc5[N+](=O)[O-])cc4[nH]3)CC2)C[C@H]1C` [Compound 13, N1-(2-(2-(2-(2-((2-(4-((S)-2-((3S,3′S)-3′,6-Dimethylspiro[indoline-3,4′-piperidin]-1′-yl)-1-hydroxyethyl)piperidine-1-carbonyl)-1H-indol-6-yl)oxy)ethoxy)ethoxy)ethoxy)ethyl)-N4-(2-(2-(2-(2-((2,4-dinitrophenyl)amino)ethoxy)ethoxy)ethoxy)ethyl)succinamide]?
A: EC50: 1 to 10 nM; ADCC efficacy [2]: +++^e (Maximum Signal:Background > 10 = +++)

— patent US20190336489A1, “NON PEPTIDE HETEROBIVALENT MOLECULES FOR TREATING INFLAMMATORY DISEASES” (GLAXOSMITHKLINE INTELLECTUAL PROPERTY DEVELOPMENT LIMITED, priority 2017, published 2019)
